{"source": "patent US12213992B2", "about": "“Iron containing composition and use thereof” (RENAPHARMA AB, priority 2018, dated 2025)", "key": {"[1]": {"assay": "Non-heme iron levels in liver", "assay_type": "in vivo, CD1 mice", "conditions": "anaemic mice, 20 mM Fe, 100 μL, 10 days", "procedure": "(§1) After the last dose, the mice were provided with water ad libitum for 18 hours before sacrifice and collection of tissues. Tissues were stored at −70° C. until subjection to various toxicological investigations. […] Tests were made with respect to the following parameters: • 1. Lipid peroxidation (MDA measurement) • 2. GSH levels • 3. Catalase levels • 4. Non-heme iron levels • 5. Plasma ferritin levels Methodology\nNon-heme iron was assayed according to the method of Foy et al. (Analytical Biochem. 1967; 18:559-563) as modified by Simpson & Peters (Br J Nutr. 1990; 63:79-89). Liver tissue was washed in ice-cold PBS, weighted (70 mg), and homogenized (1:5 w:v) in 0.15M NaCl-HEPES buffer (pH 7.4) with a glass Dounce homogenizer. 100 μl of the resulted extracted was boiled with 200 μl of TCA-sodium pyrophosphate and boil for 10 min, centrifuged at 10,000 RPM and collected the supernatant, the boiled extraction and centrifugation was repeated twice. From the total supernatant collection, 200 μL was mixed with 100 μL 4 of 0.23M ascorbic acid, 80 µL of 10 mM ferrozine and 420 μL of 2.0 M sodium-buffer acetate (pH 4.8). All samples were measured at 562 nm against the blank and compare with standard values."}, "malondialdehyde (MDA)": {"tested_on": "malondialdehyde (MDA)", "assay": "Toxicity study: lipid peroxidation (MDA measurement)", "assay_type": "in vivo, CD1 mice", "conditions": "anaemic mice, 20 mM Fe, 100 μL, 10 days; ANOVA one-way test", "procedure": "as §1\n(§2) The collection of the duodenum was achieved by taking the first 5 cm after the pylorus. The section was opened transversally, and the mucosa was removed using a glass slide.\nLipid peroxidation was measured by the detection of the endpoint product malondialdehyde (MDA), using the MDA microplate assay kit from Cohesion Biosciences (catalog number CAK1011). Liver tissue (70 mg) or duodenal mucosa (20 mg) were weighed and homogenized in assay buffer according with instructions of the kit manufacturer. All the samples were kept in ice during the assay. The dye reagent (Thiobarbituric acid) was brought at room temperature 30 min before the assay performance. […] The protein concentration of the extracts was analysed with the Bradford assay protocol and the MDA values were normalized against protein content."}, "catalase": {"tested_on": "catalase", "assay": "Toxicity study: catalase levels", "assay_type": "in vivo, CD1 mice", "conditions": "anaemic mice, 20 mM Fe, 100 μL, 10 days; ANOVA one-way test", "procedure": "as §1, §2\nThe activity of catalase enzyme was detected by using a Catalase Kit (Arbor assay company, Catalogue number K033-H1). Mice tissues were rinsed in PBS to take out the excess of blood and weighed (100 mg of liver or 20 mg duodenal mucosa). The procedure of sample preparation and assay was performed according to manufacturing instructions. The tissue samples were homogenized in ice-cold assay medium with a glass homogenizer, centrifuged at 10,000×g for 15 min at 4 degrees. The supernatant was collected to continue with the assay. A standard with catalase-hydrogen peroxide enzyme was measured within 30 min after reconstitution. The produced colour reaction was read at 450 nm using a plate reader."}, "ferritin": {"tested_on": "ferritin", "assay": "Plasma ferritin levels (mouse ELISA kit)", "assay_type": "in vivo, CD1 mice", "conditions": "anaemic mice, 20 mM Fe, 100 μL, 10 days", "procedure": "as §1\nIn this assay, the ferritin present in plasma samples reacts with the anti-Ferritin antibodies which have been adsorbed to the surface of polystyrene microliter wells. The assay was performed with a kit provided by Abcam company (Catalogue number, ab157713 Ferritin, mouse ELISA kit). The plasma samples were diluted 1:40 with the assay diluent provided in the kit. The amount of enzyme bound in the complex was measured by the addition of a chromo-genic substrate, 3,3′,5,5′-tetramethylbenzidine (TMB). The colorimetric reaction was measured at 450 nm in a plate reader. The quantity of ferritin in the test sample was interpolated from the standard curve with known concentrations of ferritin."}, "[2]": {"assay": "Tissue distribution of 59Fe", "assay_type": "in vivo, mouse", "conditions": "iron deficient mice, 4 hours after oral gavage, compared with the other iron source", "procedure": "Anaemic mice were generated using the method of Latunde-Dada et al, J. Nutr. 144 (2014) 1896-902. Mice (3 weeks old) were split into 4 groups (n=6), two groups were fed with normal iron diet (48 mg iron/Kg) and the other two with iron deficient diet (3 mg iron/kg) for 6 weeks. Before the experiment haemoglobin levels were measured to confirm the differences between the normal group and the iron deficient groups. The day before the treatment with ^59Fe labelled iron, all the mice were deprived of food overnight with water ad libitum. Normal (non anaemic) and iron deficient (anaemic) mice were gavaged with either 100 μl of the formulation of Example 4, or with ^59FeSO4-ascorbic acid (1:1) ([Fe]=21 mM). Four hours after the oral gavage the mice were sacrificed and tissues collected.\nThe tissues from the ^59Fe uptake study were used for an investigation of iron distribution (FIGS. 4-7). In the normal animals the majority of the iron is in the “carcase” (probably in blood and lymph)."}, "reduced GSH": {"tested_on": "reduced GSH", "assay": "Toxicity study: reduced GSH levels (ELISA)", "assay_type": "in vivo, CD1 mice", "conditions": "anaemic mice, 20 mM Fe, 100 μL, 10 days", "procedure": "as §1, §2\nThe assay was performed according to manufacturer's instructions."}, "anaemic mice": {"tested_on": "anaemic mice", "assay": "Haemoglobin levels in anaemic mice after treatment with oral iron (haemoglobin repletion study)", "assay_type": "in vivo, CD1 mice", "conditions": "10 days of gavage (Fe; 21 mM, 100 μl)", "source_text": "The procedure for this study was adopted from well established techniques (Kajarabille et al, Brit. J. Nutrition, 117 (2017) 767-774) (FIG. 8). There was a change of haemoglobin levels between the anaemic (12.8±2.4 g/dL) and normal animals (19.55±2.4 g/dL) (FIG. 9).\nMale CD1 mice (3 weeks of age) were made Fe deficient by feeding a low-iron diet of 3-mg Fe/Kg diet based on the modified AIN-76A purified rodent diet (TD.80396; Harlan Teklad) for 3 weeks (i.e., until they were 6 weeks of age). Another group of mice were placed on a normal iron-sufficient diet (48-mg Fe/Kg diet) (TD.80394; Harlan Teklad) to serve as control. The diets were of identical composition except that the iron-sufficient diet contained iron added as ferric citrate. After this, blood was withdrawn from the tails to determine the initial Hb concentrations of the mice. The Fe-deficient mice were then divided into the treatment groups based on similar Hb concentrations. […] After the 10 days, the mice were weighed, anaesthetized, and blood samples were taken for Hb, serum iron, and serum ferritin determinations. The mice were then killed by anaesthesia followed by neck dislocation, and the spleen, duodenum, kidney, and liver samples were excised, snap frozen in liquid nitrogen, and stored at −70° C. until further analysis."}}, "data": [{"smiles": "O=S(=O)([O-])[O-].[Fe+2]", "note": "[FeSO4]", "values": [{"measurement": "non-heme iron levels in liver, Mean", "setting": "[1]", "result": 0.3637, "unit": "nmol/mg"}, {"measurement": "concentration of malondialdehyde (MDA) in duodenal mucosa", "setting": "malondialdehyde (MDA)", "result": "no statistical differences between the groups"}, {"measurement": "concentration of malondialdehyde (MDA) in liver", "setting": "malondialdehyde (MDA)", "result": "no statistical differences between the groups"}, {"measurement": "catalase activity in duodenal mucosa", "setting": "catalase", "result": "no statistical differences between the groups"}, {"measurement": "catalase activity in liver", "setting": "catalase", "result": "no statistical differences between the groups"}, {"measurement": "plasma ferritin levels", "setting": "ferritin", "result": "lower than that of normal mice"}, {"measurement": "Fe distribution in the liver", "setting": "[2]", "result": "greater distribution of Fe in the liver"}, {"measurement": "concentration of reduced GSH in liver", "setting": "reduced GSH; ANOVA one-way test", "result": "no statistical differences between the groups"}, {"measurement": "concentration of reduced GSH in duodenal mucosa", "setting": "reduced GSH; P≤0.05, ANOVA one-way test", "result": "higher levels of GSH in duodenum in comparison with the untreated group"}, {"measurement": "haemoglobin levels", "setting": "anaemic mice", "result": "increased the haemoglobin levels in anaemic mice to those of normal mice"}]}]}
